Experimental data from the NIST ThermoML archive (doi:10.1016/j.jct.2013.04.014).
Numbers after ± are expanded uncertainties.

Tests used:
[1] = 298.2 K; for surface tension liquid-gas: Pendant drop shape; for mass density: 101.33 kPa, Liquid, Vibrating tube method
[2] = xn = mol fraction of the nth substance listed; settings: 298.2 K; for surface tension liquid-gas: Pendant drop shape; for mass density: 101.33 kPa, Liquid, Vibrating tube method

Question: With `CCCC[n+]1ccn(C)c1.O=S(=O)([N-]S(=O)(=O)C(F)(F)F)C(F)(F)F` as the compound, how does the surface tension liquid-gas [1] read?
Answer: 33.15 ± 1.1 mN/m

Question: What about the mass density [1] of the same compound?
Answer: 1436.9 ± 2.1 kg/m3

Question: For `CCCCn1cc[n+](C)c1C.O=S(=O)([N-]S(=O)(=O)C(F)(F)F)C(F)(F)F`, which surface tension liquid-gas [1] is on record?
Answer: 34.5 ± 1.1 mN/m

Question: And the mass density [1]?
Answer: 1421.2 ± 2.1 kg/m3

Question: For `CCC[N+]1(C)CCCC1.O=S(=O)([N-]S(=O)(=O)C(F)(F)F)C(F)(F)F`, which surface tension liquid-gas [1] is on record?
Answer: 35.35 ± 1.1 mN/m

Question: And the mass density [1]?
Answer: 1431.7 ± 2.1 kg/m3

Question: Which surface tension liquid-gas [1] does the source give for `CCC[N+]1(C)CCCCC1.O=S(=O)([N-]S(=O)(=O)C(F)(F)F)C(F)(F)F` here?
Answer: 35.17 ± 1.1 mN/m

Question: And the mass density [1]?
Answer: 1411.4 ± 2.1 kg/m3

Question: What does the source list for `CCC[n+]1cccc(C)c1.O=S(=O)([N-]S(=O)(=O)C(F)(F)F)C(F)(F)F`?
Answer: surface tension liquid-gas [1]: 35.02 ± 1.1 mN/m; mass density [1]: 1449.7 ± 2.1 kg/m3

Question: With `CCCCn1cc[n+](C)c1C.O=S(=O)([N-]S(=O)(=O)C(F)(F)F)C(F)(F)F` + CCCC[n+]1ccn(C)c1.O=S(=O)([N-]S(=O)(=O)C(F)(F)F)C(F)(F)F as the compound, how does the surface tension liquid-gas ([2]; x1 = 0.2193) read?
Answer: 33.38 ± 1.1 mN/m

Question: And the surface tension liquid-gas ([2]; x1 = 0.3981)?
Answer: 33.59 ± 1.1 mN/m

Question: And the surface tension liquid-gas ([2]; x1 = 0.4962)?
Answer: 33.72 ± 1.1 mN/m

Question: What about the surface tension liquid-gas ([2]; x1 = 0.5995) of the same compound?
Answer: 33.87 ± 1.1 mN/m

Question: What about the surface tension liquid-gas ([2]; x1 = 0.7896) of the same compound?
Answer: 34.16 ± 1.1 mN/m

Question: And the surface tension liquid-gas ([2]; x1 = 1)?
Answer: 34.5 ± 1.1 mN/m

Question: And the mass density ([2]; x1 = 0.2193)?
Answer: 1433.8 ± 2.1 kg/m3

Question: What about the mass density ([2]; x1 = 0.3981) of the same compound?
Answer: 1431.2 ± 2.1 kg/m3

Question: And the mass density ([2]; x1 = 0.4962)?
Answer: 1429.6 ± 2.1 kg/m3

Question: What about the mass density ([2]; x1 = 0.5995) of the same compound?
Answer: 1428 ± 2.1 kg/m3

Question: What about the mass density ([2]; x1 = 0.7896) of the same compound?
Answer: 1424.9 ± 2.1 kg/m3

Question: And the mass density ([2]; x1 = 1)?
Answer: 1421.2 ± 2.1 kg/m3

Question: For `CCC[N+]1(C)CCCC1.O=S(=O)([N-]S(=O)(=O)C(F)(F)F)C(F)(F)F` + CCCC[n+]1ccn(C)c1.O=S(=O)([N-]S(=O)(=O)C(F)(F)F)C(F)(F)F, which surface tension liquid-gas ([2]; x1 = 0.2094) is on record?
Answer: 33.63 ± 1.1 mN/m

Question: What about the surface tension liquid-gas ([2]; x1 = 0.3935) of the same compound?
Answer: 34.04 ± 1.1 mN/m

Question: What about the surface tension liquid-gas ([2]; x1 = 0.5004) of the same compound?
Answer: 34.27 ± 1.1 mN/m

Question: What about the surface tension liquid-gas ([2]; x1 = 0.5943) of the same compound?
Answer: 34.48 ± 1.1 mN/m

Question: What about the surface tension liquid-gas ([2]; x1 = 0.7854) of the same compound?
Answer: 34.89 ± 1.1 mN/m

Question: What about the surface tension liquid-gas ([2]; x1 = 1) of the same compound?
Answer: 35.35 ± 1.1 mN/m

Question: What about the mass density ([2]; x1 = 0.2094) of the same compound?
Answer: 1436.9 ± 2.1 kg/m3

Question: What about the mass density ([2]; x1 = 0.3935) of the same compound?
Answer: 1436.4 ± 2.1 kg/m3

Question: What about the mass density ([2]; x1 = 0.5004) of the same compound?
Answer: 1435.9 ± 2.1 kg/m3

Question: What about the mass density ([2]; x1 = 0.5943) of the same compound?
Answer: 1435.4 ± 2.1 kg/m3

Question: What about the mass density ([2]; x1 = 0.7854) of the same compound?
Answer: 1433.9 ± 2.1 kg/m3

Question: What about the mass density ([2]; x1 = 1) of the same compound?
Answer: 1431.7 ± 2.1 kg/m3

Question: With `CCC[N+]1(C)CCCCC1.O=S(=O)([N-]S(=O)(=O)C(F)(F)F)C(F)(F)F` + CCCC[n+]1ccn(C)c1.O=S(=O)([N-]S(=O)(=O)C(F)(F)F)C(F)(F)F as the compound, how does the surface tension liquid-gas ([2]; x1 = 0.2156) read?
Answer: 33.53 ± 1.1 mN/m

Question: What about the surface tension liquid-gas ([2]; x1 = 0.4069) of the same compound?
Answer: 33.9 ± 1.1 mN/m

Question: And the surface tension liquid-gas ([2]; x1 = 0.4988)?
Answer: 34.08 ± 1.1 mN/m

Question: What about the surface tension liquid-gas ([2]; x1 = 0.5955) of the same compound?
Answer: 34.28 ± 1.1 mN/m

Question: What about the surface tension liquid-gas ([2]; x1 = 0.7958) of the same compound?
Answer: 34.71 ± 1.1 mN/m

Question: And the surface tension liquid-gas ([2]; x1 = 1)?
Answer: 35.17 ± 1.1 mN/m

Question: What about the mass density ([2]; x1 = 0.2156) of the same compound?
Answer: 1432.9 ± 2.1 kg/m3

Question: What about the mass density ([2]; x1 = 0.4069) of the same compound?
Answer: 1428.5 ± 2.1 kg/m3

Question: What about the mass density ([2]; x1 = 0.4988) of the same compound?
Answer: 1426.2 ± 2.1 kg/m3

Question: And the mass density ([2]; x1 = 0.5955)?
Answer: 1423.7 ± 2.1 kg/m3

Question: What about the mass density ([2]; x1 = 0.7958) of the same compound?
Answer: 1417.9 ± 2.1 kg/m3

Question: What about the mass density ([2]; x1 = 1) of the same compound?
Answer: 1411.4 ± 2.1 kg/m3

Question: Which surface tension liquid-gas ([2]; x1 = 0.2093) does the source give for `CCC[n+]1cccc(C)c1.O=S(=O)([N-]S(=O)(=O)C(F)(F)F)C(F)(F)F` + CCCC[n+]1ccn(C)c1.O=S(=O)([N-]S(=O)(=O)C(F)(F)F)C(F)(F)F here?
Answer: 33.42 ± 1.1 mN/m

Question: What about the surface tension liquid-gas ([2]; x1 = 0.3996) of the same compound?
Answer: 33.73 ± 1.1 mN/m

Question: And the surface tension liquid-gas ([2]; x1 = 0.4995)?
Answer: 33.91 ± 1.1 mN/m

Question: And the surface tension liquid-gas ([2]; x1 = 0.6047)?
Answer: 34.12 ± 1.1 mN/m

Question: What about the surface tension liquid-gas ([2]; x1 = 0.8024) of the same compound?
Answer: 34.55 ± 1.1 mN/m

Question: What about the surface tension liquid-gas ([2]; x1 = 1) of the same compound?
Answer: 35.02 ± 1.1 mN/m

Question: And the mass density ([2]; x1 = 0.2093)?
Answer: 1440.2 ± 2.1 kg/m3

Question: What about the mass density ([2]; x1 = 0.3996) of the same compound?
Answer: 1442.9 ± 2.1 kg/m3

Question: And the mass density ([2]; x1 = 0.4995)?
Answer: 1444.2 ± 2.1 kg/m3

Question: What about the mass density ([2]; x1 = 0.6047) of the same compound?
Answer: 1445.5 ± 2.1 kg/m3

Question: And the mass density ([2]; x1 = 0.8024)?
Answer: 1447.7 ± 2.1 kg/m3

Question: What about the mass density ([2]; x1 = 1) of the same compound?
Answer: 1449.7 ± 2.1 kg/m3

Question: Which results are given for `CCCC[n+]1ccn(C)c1.O=S(=O)([N-]S(=O)(=O)C(F)(F)F)C(F)(F)F` + CCCCn1cc[n+](C)c1C.O=S(=O)([N-]S(=O)(=O)C(F)(F)F)C(F)(F)F?
Answer: surface tension liquid-gas ([2]; x2 = 0): 33.15 ± 1.1 mN/m; mass density ([2]; x2 = 0): 1436.9 ± 2.1 kg/m3

Question: Which surface tension liquid-gas ([2]; x2 = 0) does the source give for `CCCC[n+]1ccn(C)c1.O=S(=O)([N-]S(=O)(=O)C(F)(F)F)C(F)(F)F` + CCC[N+]1(C)CCCC1.O=S(=O)([N-]S(=O)(=O)C(F)(F)F)C(F)(F)F here?
Answer: 33.15 ± 1.1 mN/m

Question: And the mass density ([2]; x2 = 0)?
Answer: 1436.9 ± 2.1 kg/m3

Question: Which surface tension liquid-gas ([2]; x2 = 0) does the source give for `CCCC[n+]1ccn(C)c1.O=S(=O)([N-]S(=O)(=O)C(F)(F)F)C(F)(F)F` + CCC[N+]1(C)CCCCC1.O=S(=O)([N-]S(=O)(=O)C(F)(F)F)C(F)(F)F here?
Answer: 33.15 ± 1.1 mN/m

Question: And the mass density ([2]; x2 = 0)?
Answer: 1436.9 ± 2.1 kg/m3

Question: Which results are given for `CCCC[n+]1ccn(C)c1.O=S(=O)([N-]S(=O)(=O)C(F)(F)F)C(F)(F)F` + CCC[n+]1cccc(C)c1.O=S(=O)([N-]S(=O)(=O)C(F)(F)F)C(F)(F)F?
Answer: surface tension liquid-gas ([2]; x2 = 0): 33.15 ± 1.1 mN/m; mass density ([2]; x2 = 0): 1436.9 ± 2.1 kg/m3
